Laboratory results reported in publication PMC5008228 (Journal of Parkinson's Disease, 2016).
“And” between values parts separate entries of the source, which are not always exact repeats. Identical values can stand only once.

Columns and labels:
[1] = Nilotinib pharmacokinetics in plasma by mass spectrometry; type: in vivo; conditions: human, po, unbound Nilotinib; for AUC: Plasma AUC; for Cmax: Plasma Cmax
[2] = tested on: PDD or DLB participants; assay: Unified Parkinson's Disease Rating Scale; type: in vivo, human; conditions: for UPDRS-I-IV score / UPDRS-III score: individual participants; for Average decrease in UPDRS-III (motor): week 24 compared to baseline
[3] = tested on: PDD or DLB participants; assay: Mini Mental State Examination; type: in vivo, human; conditions: 300 ng (sub-heading as printed) oral daily; for MMSE score, AVG: group AVG (Screening AVG 17); for MMSE score: individual participants

Cc1cn(-c2cc(NC(=O)c3ccc(C)c(Nc4nccc(-c5cccnc5)n4)c3)cc(C(F)(F)F)c2)cn1 [Nilotinib]
AUC ([1]; 150 mg, 150 mg oral): 157 ng·h/mL
Cmax ([1]; 150 mg, 150 mg oral): 55 nM
AUC ([1]; 300 mg, 300 mg oral): 232 ng·h/mL
Cmax ([1]; 300 mg, 300 mg oral): 86 nM
UPDRS-III score, AVG ([2]; 150 mg oral daily, Week-4, group AVG (Screening AVG 37.8)): 29.4
UPDRS-I-IV score ([2]; 150 mg oral daily, Week-4): 54 and 103 and 43 and 71 and 50
UPDRS-III score ([2]; 150 mg oral daily, Week-4): 29 and 55 and 33 and 26
UPDRS-III score, AVG ([2]; 150 mg oral daily, Week-8, group AVG (Screening AVG 37.8)): 35.6
UPDRS-I-IV score, AVG ([2]; 150 mg oral daily, Week-8, group AVG (Screening AVG 72.60)): 69.00
UPDRS-I-IV score ([2]; 150 mg oral daily, Week-8): 57 and 76 and 63 and 45
UPDRS-III score ([2]; 150 mg oral daily, Week-8): 32 and 56 and 39 and 28 and 23
UPDRS-III score, AVG ([2]; 150 mg oral daily, Week-12, group AVG (Screening AVG 37.8)): 36.6
UPDRS-I-IV score, AVG ([2]; 150 mg oral daily, Week-12, group AVG (Screening AVG 72.60)): 69.40
UPDRS-I-IV score ([2]; 150 mg oral daily, Week-12): 56 and 107 and 77 and 60 and 47
UPDRS-III score ([2]; 150 mg oral daily, Week-12): 32 and 59 and 40 and 30 and 22
UPDRS-III score, AVG ([2]; 150 mg oral daily, Week-16, group AVG (Screening AVG 37.8)): 38
UPDRS-I-IV score, AVG ([2]; 150 mg oral daily, Week-16, group AVG (Screening AVG 72.60)): 70.20
UPDRS-I-IV score ([2]; 150 mg oral daily, Week-16): 58 and 107 and 80 and 63 and 43
UPDRS-III score ([2]; 150 mg oral daily, Week-16): 33 and 59 and 43 and 22
UPDRS-III score, AVG ([2]; 150 mg oral daily, Week-20, group AVG (Screening AVG 37.8)): 36.2
UPDRS-I-IV score, AVG ([2]; 150 mg oral daily, Week-20, group AVG (Screening AVG 72.60)): 67.80
UPDRS-I-IV score ([2]; 150 mg oral daily, Week-20): 53 and 83 and 57 and 38
UPDRS-III score ([2]; 150 mg oral daily, Week-20): 29 and 60 and 42 and 31 and 19
UPDRS-III score, AVG ([2]; 150 mg oral daily, Week-24, group AVG (Screening AVG 37.8)): 34.4
UPDRS-I-IV score, AVG ([2]; 150 mg oral daily, Week-24, group AVG (Screening AVG 72.60)): 65.60
UPDRS-I-IV score ([2]; 150 mg oral daily, Week-24): 44 and 83 and 53 and 40
UPDRS-III score ([2]; 150 mg oral daily, Week-24): 23 and 60 and 42 and 29 and 18
Average decrease in UPDRS I-IV ([2]; 150 mg oral daily, at 6 months): 7 points
Average decrease in UPDRS-III (motor) ([2]; 150 mg oral daily): 3.4 points
UPDRS-III score, AVG ([2]; 300 mg oral daily, Week-4, group AVG (Screening AVG 30.6)): 28
UPDRS-I-IV score, AVG ([2]; 300 mg oral daily, Week-4, group AVG (Screening AVG 62.5)): 60.8
UPDRS-I-IV score ([2]; 300 mg oral daily, Week-4): 31 and 45 and 21 and 49 and 116 and 103
UPDRS-III score ([2]; 300 mg oral daily, Week-4): 11 and 14 and 7 and 22 and 67 and 47
UPDRS-III score, AVG ([2]; 300 mg oral daily, Week-8, group AVG (Screening AVG 30.6)): 28
UPDRS-I-IV score, AVG ([2]; 300 mg oral daily, Week-8, group AVG (Screening AVG 62.5)): 60.3
UPDRS-I-IV score ([2]; 300 mg oral daily, Week-8): 28 and 41 and 25 and 45 and 118 and 105
UPDRS-III score ([2]; 300 mg oral daily, Week-8): 9 and 11 and 18 and 70 and 49
UPDRS-III score, AVG ([2]; 300 mg oral daily, Week-12, group AVG (Screening AVG 30.6)): 26.6
UPDRS-I-IV score, AVG ([2]; 300 mg oral daily, Week-12, group AVG (Screening AVG 62.5)): 57.3
UPDRS-I-IV score ([2]; 300 mg oral daily, Week-12): 26 and 41 and 19 and 46 and 115 and 97
UPDRS-III score ([2]; 300 mg oral daily, Week-12): 9 and 11 and 8 and 18 and 67 and 47
UPDRS-III score, AVG ([2]; 300 mg oral daily, Week-16, group AVG (Screening AVG 30.6)): 27.8
UPDRS-I-IV score, AVG ([2]; 300 mg oral daily, Week-16, group AVG (Screening AVG 62.5)): 58.8
UPDRS-I-IV score ([2]; 300 mg oral daily, Week-16): 33 and 46 and 17 and 49 and 113 and 95
UPDRS-III score ([2]; 300 mg oral daily, Week-16): 13 and 16 and 6 and 21 and 67 and 44
UPDRS-III score, AVG ([2]; 300 mg oral daily, Week-20, group AVG (Screening AVG 30.6)): 26.8
UPDRS-I-IV score, AVG ([2]; 300 mg oral daily, Week-20, group AVG (Screening AVG 62.5)): 55.3
UPDRS-I-IV score ([2]; 300 mg oral daily, Week-20): 23 and 41 and 16 and 54 and 106 and 92
UPDRS-III score ([2]; 300 mg oral daily, Week-20): 7 and 16 and 21 and 69 and 41
UPDRS-III score, AVG ([2]; 300 mg oral daily, Week-24, group AVG (Screening AVG 30.6)): 27
UPDRS-I-IV score, AVG ([2]; 300 mg oral daily, Week-24, group AVG (Screening AVG 62.5)): 51.6
UPDRS-I-IV score ([2]; 300 mg oral daily, Week-24): 20 and 28 and 15 and 45 and 107 and 95
UPDRS-III score ([2]; 300 mg oral daily, Week-24): 9 and 12 and 6 and 21 and 70 and 44
Average decrease in UPDRS-III (motor) ([2]; 300 mg oral daily): 3.6 points
MMSE score, AVG ([3]; Week-4): 20.3
MMSE score ([3]; Week-4): 27 and 28 and 24 and 5 and 10
MMSE score, AVG ([3]; Week-8): 18.1
MMSE score ([3]; Week-8): 28 and 23 and 24 and 2 and 8
